# From patent US7235536B2, “Cellulose sulfate and other sulfated polysaccharides to prevent and treat papilloma virus infection and other infections” (Rush Presbyterian-St. Luke's Medical Center, priority 2000, dated 2007)
# Several values for one entry are separate records, joined by “and”; a condition that tells them apart may be missing. Identical values can stand only once.
# How the values were obtained:
# [1] = system: Fusobacterium gonidiaformans; test: Broth method MIC; type: cell-based; conditions: for CS MIC: Broth (study 2)
# [2] = system: Porphyromonas asaccharolytica; test: Broth method MIC; type: cell-based; conditions: for CS MIC: Broth (study 2)
# [3] = system: Bovine Papillomavirus type I; test: BPV cell focus formation assay (Tables A, B); type: cell-based, bovine papilloma virus
# Protocol: Cellulose sulfate was tested for its ability to inhibit BPV infection by cell focus formation assay (see Hermonat et al. (1992) for a description of this assay). Cellulose sulfate from Dextran Products Limited (Lot 80971 in the form of sodium cellulose sulfate, known as Ushercell J.) was mixed with BPV type I (obtained from bovine fibropapillomas) prior to adding the virus to mouse fibroblast line […] cells or mixed with these host cells first prior to adding the virus. In one molecular weight study, the Mr range of cellulose sulfate was about 750 to 20.3 million, with an average Mr of about 1.01 million. […] In another study, the average molecular weight was determined to be about 1.9 million with a peak Mr of about 2.3 million. Unless otherwise specified, the Mr is in daltons. The assay was repeated using different concentrations of cellulose sulfate and the results are shown below.
# Eubacterium lentum = test: Broth method MIC; type: cell-based; conditions: for CS MIC: Broth (study 2)
# HPV-40 = test: RT-PCR ELISA for transient infection of human A431 cells, HPV-40; type: cell-based, human papilloma virus; conditions: with virus (HPV-40)
# Protocol: Cellulose sulfate and dextran sulfate were each prepared as a 2 mg/ml solution in 0.9% NaCl and tested for microbicidal activity using the in vitro HPV transient infection assay originally described by Smith and colleagues (Smith, L. H., C. Foster, M. E. Hitchcock, and R. Isseroff. 1993. In vitro HPV-11 infection of human foreskin. J. Invest. Dermatol. 101:292-295) with some modifications (Ludmerer, S. W., W. L. McClements, X. M. Wang, J. C. Ling, K. U. Jansen, and N. D. Christensen. 2000. HPV11 mutant virus-like parties elicit immune responses that neutralize virus and delineate a novel neutralizing domain. Virology 266:237-245). An ELISA-based read-out of Optical Density (OD) values using alkaline phosphatase cleavage of the substrate p-nitrophenyl phosphate was also used to measure HPV infection as described below.
# The RT-PCR assay to detect HPV-40 infection was designed similarly for the detection of HPV-11 infection as described above.
# A modification of the RT-PCR assay that incorporates an ELISA-based read-out (Boehringer-Mannheim) was also included to assess microbicidal activity. Replicate cell cultures of A431 cells were infected with an aliquot of infectious HPV virions as described above. After 4 days of culture, cells were harvested and RNA extracted. RNA was subjected to RT using downstream anti-sense (reverse) primers for HPV-11 or HPV-40 and β-actin (as a control/housekeeping cellular transcript) to initiate cDNA synthesis. The cDNA was processed through 2 sets of 30 cycles of PCR amplification using nested primers: the second set of cycles used digoxygenin (DIG)-dUTP to label the PCR products with DIG. DIG-labeled PCR products were denatured then renatured together with a biotinylated oligonucleotide specific for the targeted PCR product. Biotinylated products were detected in ELISA with plates coated with streptavidin (to capture the biotinylated target PCR product) then anti-DIG antibody and substrate. Labeled PCR products were added directly to ELISA plates, or titrated at 10-fold dilutions in duplicate for each cell culture for each virus dilution.
# The microbicidal activity was assessed either as the detection of ethidium stained PCR products or as an ELISA-based read-out as described above. […] An initial experiment was conducted to test the specificity of the ELISA-based RT-PCR assay using HPV-11 and HPV-40 infection of A431 cells (Table E).
# [4] = in vivo
# Description: Cellulose sulfate offers a further advantage in that irritation by a cytotoxic agent can cause lesions which may facilitate infection and the use of cellulose sulfate is not associated with such risks of infection.
# Prevotella bivia = test: Broth method MIC; type: cell-based
substance,measurement,setting,value
sodium cellulose sulfate,growth inhibition,"[1]; both strains, broth method",inhibited
same,CS MIC,[1]; rma# 11423,5000 µg/mL
same,CS MIC,[1]; rma# 11653,5000 µg/mL
same,growth inhibition,[2]; at the concentrations tested,Two strains of Porphyromonas asaccharolytica were inhibited but a third one was not
same,CS MIC,[2]; rma# 11656,5000 µg/mL
same,CS MIC,[2]; rma# 11690,NI (not inhibited by 10 mg/ml (the highest concentration tested))
same,inhibition of infection,"[3]; 40 μg/ml, mixed first with the virus",partial inhibition
same,inhibition of infection,"[3]; 40 μg/ml, pre-incubated with host cells",Complete inhibition
same,inhibition of infection,"[3]; 200 ug/ml, pre-incubated with the virus before addition to the host cells",almost complete inhibition
same,formation of oncogenic foci by the virus,"[3]; 500 μg/ml, mixed with the virus or with the host cells",completely inhibited
same,Viral-induced foci per culture,"[3]; Table A, 5.0 μg/ml, pre-incubated with host cells prior to addition to virus",72 foci per culture and 60 foci per culture
same,Viral-induced foci per culture,"[3]; Table A, 5.0 μg/ml, pre-incubated with virus prior to addition to host cells",121 foci per culture and 97 foci per culture
same,Viral-induced foci per culture,"[3]; Table A, 50 μg/ml, pre-incubated with host cells prior to addition to virus",10 foci per culture and 12 foci per culture
same,Viral-induced foci per culture,"[3]; Table A, 50 μg/ml, pre-incubated with virus prior to addition to host cells",37 foci per culture and 32 foci per culture
same,Viral-induced foci per culture,"[3]; Table A, 500 μg/ml, pre-incubated with host cells prior to addition to virus",0^A foci per culture and 0 foci per culture
same,Viral-induced foci per culture,"[3]; Table A, 500 μg/ml, pre-incubated with virus prior to addition to host cells",0^A foci per culture and 0 foci per culture
same,Viral-induced foci per culture,"[3]; Table A, 5000 μg/ml, pre-incubated with host cells prior to addition to virus",0^B foci per culture and 0 foci per culture
same,Viral-induced foci per culture,"[3]; Table A, 5000 μg/ml, pre-incubated with virus prior to addition to host cells",0^B foci per culture and 0 foci per culture
same,Viral-induced foci per culture,"[3]; Table B, 1.6 μg/ml, pre-incubated with virus prior to addition to host cells",196 foci per culture and 168 foci per culture
same,Viral-induced foci per culture,"[3]; Table B, 8.0 μg/ml, pre-incubated with host cells prior to addition to virus",5 foci per culture and 3 foci per culture
same,Viral-induced foci per culture,"[3]; Table B, 40 μg/ml, pre-incubated with host cells prior to addition to virus",0 foci per culture
same,Viral-induced foci per culture,"[3]; Table B, 40 μg/ml, pre-incubated with virus prior to addition to host cells",116 foci per culture and 104 foci per culture
same,Viral-induced foci per culture,"[3]; Table B, 200 μg/ml, pre-incubated with host cells prior to addition to virus",0 foci per culture
same,Viral-induced foci per culture,"[3]; Table B, 200 μg/ml, pre-incubated with virus prior to addition to host cells",34 foci per culture and 42 foci per culture
same,growth inhibition,Eubacterium lentum; both strains,inhibited
same,CS MIC,Eubacterium lentum; rma# 9420,5000 µg/mL
same,CS MIC,Eubacterium lentum; rma# 11700,10000 µg/mL
same,"Mean (SD) of O.D. reading for RT-PCR ELISA, HPV-40 probe",HPV-40; 10 μg/ml at viral pretreatment,0.397 (0.050) O.D.
same,"Mean (SD) of O.D. reading for RT-PCR ELISA, HPV-40 probe",HPV-40; 100 μg/ml at viral pretreatment,0.128 (0.008) O.D.
same,"Mean (SD) of O.D. reading for RT-PCR ELISA, HPV-40 probe",HPV-40; 1000 μg/ml at viral pretreatment,0.037 (0.004) O.D.
same,tolerability versus K-Y Jelly,[4],as well as or even better than K-Y Jelly
same,tolerability versus nonoxynol-9,[4],better tolerated than nonoxynol-9
same,growth inhibition,Prevotella bivia; all strains,inhibited
same,CS MIC,"Prevotella bivia; rma# 11683, Broth (study 1)",NI (not inhibited by 10 mg/ml (the highest concentration tested))
same,CS MIC,"Prevotella bivia; rma# 11683, Broth (study 2)",5000 µg/mL
same,CS MIC,"Prevotella bivia; rma# 11697, Broth (study 1)",600 µg/mL
same,CS MIC,"Prevotella bivia; rma# 11697, Broth (study 2)",5000 µg/mL
